Test system: Staphylococcus epidermidis biofilms
Test: Sterilization of S. epidermidis biofilms, minimal exposure time at 22° C. (supravital dye, confirmed by culture)
Format: cell-based
Text: This example compares and contrasts the cidal effectiveness of compositions of the invention with other disinfectants and antibiotics against Staphylococcus epidermidis biofilms, which are frequently observed on the surface of C.A.P.D. peritoneal catheters even in the absence of peritonitis or exit site infections.
A strain of S. epidermidis with characteristic abundant slime production, and derived from a human source, is used to prepare the biofilms. The isolate is fully sensitive in the fluid phase to all commonly used antibiotics as assayed using routine test methods. Aliquots of the bacteria are frozen at -70° C. in 10% glycerol broth or propagated on 5% defibrinated horse blood agar. Standardized biofilms are formed on soda glass microscope slides or slides coated with Silastic® (the basic material of indwelling catheters; see Cecil's, cited above, on page 542), placed in Petri dishes containing 20 ml of tryptone soya broth (Oxoid Ltd., England), seeded with 10^4 cfu S. epidermidis and incubated for 18 hours at 37° C. Reproducible uniform and confluent S. epidermidis biofilms of minimal density are formed.
Antibiotic activity against S. epidermidis biofilms are determined using a supravital dye which acts as an electron acceptor in coupled oxidative systems in biofilm bacteria. The method allows the bacteria to be examined undisturbed within the biofilm matrix in situ. Briefly stated, the biofilms are exposed to antibiotic solutions and incubated at […] for varying periods of time. Positive (viable, 1% peptone water) and negative (sterilized, 4% formol-peptone) controls are included in all experiments. After a designated exposure at 22° C. for varying periods of time between 15 seconds to 6 hours, the biofilms are rinsed twice in sterile water and allowed to drain. They are then placed in a flat agar medium incorporating substantive dyes and incubated at 37° C. for 4 hours, then 24 hours. Viability is assessed visually by a change in dye color and confirmed after 24 hours by mechanically scraping and subsequently culturing the biofilms. Sterilization is indicated by the absence of color changes and confirmed by culture of both intact and mechanically fragmented biofilms. Inhibition of growth is indicated by a lack of color change after a 4-hour incubation and confirmed by a positive color change by 24 hours.

Row | Structure (SMILES) | Exposure Time (22° C.) for Film Sterilization (100 μg/ml) [h] | contact time relative to 50 ppm ClO2 to destroy the organisms in the biofilm (3% concentration, vs 50 ppm ClO2) [times] | Exposure Time (22° C.) for Film Sterilization [h]
1 | CO[C@H]1/C=C/O[C@@]2(C)Oc3c(C)c(O)c4c(O)c(c(/C=N/N5CCN(C)CC5)c(O)c4c3C2=O)NC(=O)/C(C)=C\C=C\[C@H](C)[C@H](O)[C@@H](C)[C@@H](O)[C@@H](C)[C@H](OC(C)=O)[C@@H]1C [rifampin] | 6 | – | –
2 | OO [Hydrogen Peroxide (3%), Hydrogen Peroxide] | – | 1200 | 0.167

Reference: patent publication US5622725A, “Wound disinfection and repair” (Alcide Corporation, priority 1996, dated 1997)
